Measurements as given in ChEMBL document CHEMBL1149839, “Alkaloids from Daphniphyllum oldhami” (2008).

How the values were obtained:
[1] = tested on: Platelet; experiment: Inhibition of PAF-induced platelet aggregation at 2.4 mmol/L; format: functional
[2] = tested on: Platelet; experiment: Inhibition of PAF-induced platelet aggregation at 1.0 mmol/L; format: functional

| SMILES | inhibition at 2400 µM [1] [%] | inhibition at 1000 µM [2] [%] |
| --- | --- | --- |
| CC(=O)Oc1ccccc1C(=O)O [ASPIRIN] | 44.9 |  |
| CC(=O)O[C@@H](C[C@]12[C@@H]3CCC[C@@]34CCC3[C@H](O)N4[C@@H]1[C@@H](C(C)C)CC[C@@]32C)C(=O)[C@]1(C)CO[C@@]2(C)CC[C@H]1O2 [DAPHNIOLDHANINE H] |  | 10.9 |
| C[C@@H]1CN2[C@H]3[C@@H]4CCC[C@@H]4C(=O)C[C@@H]3[C@]3(C)OC(=O)CC[C@]34CC[C@H]1[C@H]24 [DAPHNIOLDHANINE J] |  | 71.6 |
| CCC1=CC[C@]2(CO1)[C@@H]1CCC3=C4[C@H](CC3)[C@H](C(=O)OC)C[C@]42CN(C)C1 [DEHYDRODAPHNIGRACILINE] |  | 13.4 |
